Measured values from article PMC7111470 (European Journal of Medicinal Chemistry, 2011).

Key:
[1] = target: T1, BCoV 9-SOAE (haemagglutinin-esterase on whole virus) (Bovine coronavirus Mebus, UniProt P15776); assay: pNPA hydrolysis, A400; format: biochemical; settings: read-out: BCoV / 3
[2] = target: T1, BCoV 9-SOAE (haemagglutinin-esterase on whole virus); assay: pNPA hydrolysis, A400; format: biochemical

T1 sequence (P15776 17-424): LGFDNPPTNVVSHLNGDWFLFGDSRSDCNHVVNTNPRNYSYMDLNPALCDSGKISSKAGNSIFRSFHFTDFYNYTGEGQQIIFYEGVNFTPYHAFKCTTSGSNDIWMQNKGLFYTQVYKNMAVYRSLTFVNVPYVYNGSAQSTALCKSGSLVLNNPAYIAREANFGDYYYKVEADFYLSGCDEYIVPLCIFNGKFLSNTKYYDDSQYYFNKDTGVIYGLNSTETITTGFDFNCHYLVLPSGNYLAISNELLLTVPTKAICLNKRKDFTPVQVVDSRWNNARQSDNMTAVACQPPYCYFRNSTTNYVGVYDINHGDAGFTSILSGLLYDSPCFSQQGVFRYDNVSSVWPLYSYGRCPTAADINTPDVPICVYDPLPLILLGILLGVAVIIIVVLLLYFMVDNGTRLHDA

SMILES: C=CCO[C@]1(C(=O)O)C[C@H](O)[C@@H](NC(C)=O)[C@H]([C@H](O)[C@H](O)COC)O1 [compound 3, Ammonium (allyl 5-acetamido-9-O-methyl-3,5-dideoxy-d-glycero-α-d-galacto-2-nonulopyranosidonate)]
- inhibition at 2000 µM [1]: < 0%

SMILES: CC(=O)Oc1ccc([N+](=O)[O-])cc1 [p-nitrophenyl acetate]
- pNPA hydrolysis, A400 [2]: esterase activities of all viruses and recombinant proteins were determined with p-nitrophenyl acetate (pNPA)
